Laboratory results: patent publication US20080033010A1, “Combination therapy of erdosteine and beta-2 agonists for treating respiratory pathologies characterized by non reversible or partially reversible airway obstruction” (EDMOND PHARMA s.r.l., priority 2006, published 2008)

Tested on: newly diagnosed COPD subjects
Test: Test of bronchial reversibility with salbutamol (spirometry, FEV1) before and after 4 and 10 days of erdosteine therapy, double-blind against placebo
Type: in vivo, humans
Protocol: This effect has been found in a trial utilizing the test of bronchial reversibility with salbutamol before and after 4 and 10 days of therapy with erdosteine at the dose of 900 mg/day, that is the maximum dosage presently approved in humans. The standard protocol has been used: spirometry was performed before and 15-20 minutes after the administration of […] of salbutamol with a metered inhaler. For reducing the bias, the study was double-blind against placebo and the patients selected were newly diagnosed COPD subjects never treated with −2 agonists. 7 patients were treated with erdosteine and 7 with placebo in a random order. At baseline, all the patients had only a partial reversibility (mean 2.5%) of bronchial obstruction calculated with the FEV1 (the absolute values were 1.5 liters before salbutamol and 1.537 liters after salbutamol), thus fully meeting the COPD definition. When the test was repeated at Day 4 of therapy, the reversibility of bronchial obstruction in the placebo group was not different from the baseline values (mean increase of FEV1: 0.9%), while in the erdosteine group there was a significant and unexpected increase of post-salbutamol FEV1 values in all the patients (mean increase of FEV1: 7.1%).

[1] = Patient #1, after 4 days of erdosteine therapy
[2] = Patient #1, after 10 days of erdosteine therapy
[3] = Patient #4, after 4 days of erdosteine therapy
[4] = Patient #4, after 10 days of erdosteine therapy
[5] = Patient #4, before therapy (baseline)
[6] = baseline, all the patients, before therapy

O=C(O)CSCC(=O)NC1CCSC1=O (centres unmarked) [erdosteine]
FEV1 post salbutamol [1]: 2.05 | FEV1 pre salbutamol [1]: 1.85 | increase of FEV1 post vs pre salbutamol [1]: +10.8% | FEV1 post salbutamol [2]: 2.13 | FEV1 pre-salbutamol [2]: 1.93 | increase of FEV1 post vs pre salbutamol [2]: +9.4% | FEV1 post salbutamol (Patient #1, before therapy (baseline)): 1.81 | FEV1 pre-salbutamol (Patient #1, before therapy (baseline) (entry two)): 1.81 | FEV1 pre-salbutamol (Patient #4 (person one), before therapy (baseline)): 1.19 | FEV1 post salbutamol [3]: 1.96 | FEV1 pre salbutamol [3]: 1.74 | increase of FEV1 post vs pre salbutamol [3]: +12.6% | FEV1 post salbutamol [4]: 1.92 | FEV1 pre-salbutamol [4]: 1.69 | increase of FEV1 post vs pre salbutamol [4]: +13% | FEV1 post salbutamol [5]: 1.26 | increase of FEV1 post vs pre salbutamol [5]: +5.9% | reversal of the bronchial obstruction (erdosteine administered with beta agonists vs beta agonist alone): much more evident than that obtained with the beta agonist alone | mean increase of FEV1 (reversibility of bronchial obstruction, post-salbutamol) (erdosteine group (7 patients), Day 4 of therapy, erdosteine 900 mg/day, spirometry 15-20 minutes after salbutamol): 7.1% | mean increase of FEV1 (reversibility of bronchial obstruction, post-salbutamol) (erdosteine group, final control at Day 10, erdosteine 900 mg/day): 10.3%

CC(C)(C)NCC(O)c1ccc(O)c(CO)c1 (centres unmarked) [salbutamol]
partial reversibility of bronchial obstruction calculated with the FEV1 (mean) (baseline, all the patients, before erdosteine or placebo therapy, salbutamol alone): 2.5% | FEV1 absolute value after salbutamol [6]: 1.537 L | FEV1 absolute value before salbutamol [6]: 1.5 L
